Measured values published in patent EP4818185A1, “CRYSTAL FORMS OF 20(S)-PROTOPANAXADIOL, PREPARATION METHOD THEREFOR AND USE THEREOF” (Shanghai Baocheng Tailai Technology Co., Ltd., priority 2023, dated 2025).
≈ marks a conversion by molar mass, not a printed value. Where “and” joins values, the source holds several entries; their conditions need not be identical. Equal values may be shown once.

What was measured:
[1] = Repose angle test (funnel, cone); type: physicochemical; settings: for Average repose angle (°): average of three parallel tests; for Repose angle (°): single tests No. 1-3, calculated from cone height and diameter
Experimental: An appropriate amount of each test sample was taken. A funnel was fixed on an iron stand and positioned perpendicularly to the tabletop. The crystal form A and crystal form B samples were added into the funnel, respectively, allowing the sample to freely fall to form a cone. The height and diameter of the cone were measured to calculate the repose angle. Three parallel tests were performed. […]

[2] = Mechanical stability test (grinding, tableting); type: physicochemical; settings: for crystal form after grinding: manually ground in agate mortar for about 3 minutes; for crystal form after tableting / crystallinity degree after tableting: tableting under a pressure of 200 MPa
Experimental: An appropriate amount of each test sample was taken, placed respectively in an agate mortar, and manually ground for about 3 minutes, then, the crystal form was measured.
An appropriate amount of each test sample was taken, and added respectively into a tablet press. The crystal form was measured after tableting under a pressure of 200 MPa.

[3] = Solid-state stability test (XRPD crystal form, HPLC purity); type: physicochemical; settings: for crystal form transformation (XRPD): under three conditions: 80°C sealed 1 day, 25°C/60% RH and 40°C/75% RH open 1 month
Experimental: An appropriate amount of each test sample was weighed, and subjected to stability tests under the following conditions: sealed storage at 80°C for 1 day, and open storage at 25°C/60% RH and 40°C/75% RH for 1 month, respectively. Solid samples separated under different conditions were subjected to XRPD to measure crystal form to evaluate physical stability, and HPLC to measure chemical purity to evaluate chemical stability. […]

[4] = Bulk density and tap density test; type: physicochemical; settings: for Average bulk density / Average tap density: average of three parallel tests; for Average tap density: tapped 200 times; for Bulk density: single tests No. 1-3, approx. 800 mg in 5 mL graduated cylinder; for Tap density: single tests No. 1-3, tapped 200 times
Experimental: Approximately 800 mg of each test sample was taken, and added into a 5 mL graduated cylinder, respectively, and the volume at this point was recorded. The graduated cylinder was lightly tapped against the tabletop 200 times, and the volume at this point was recorded. Three parallel tests were performed.

[5] = Solubility test (suspension equilibrated at 37°C, content by HPLC); settings: for Solubility, FaSSIF: FaSSIF (fasted state simulated intestinal fluid); for Solubility, FaSSIF / Solubility, SGF: 37°C; for Solubility, SGF: SGF (simulated gastric fluid); for 24-hour solubility relative to LOQ: purified water and pH 1 buffer medium
[6] = Hygroscopicity test (dynamic vapor sorption, DVS); type: physicochemical; settings: for Hygroscopic weight gain at 25°C/80% RH (%): DVS; for hygroscopicity: class per Chinese Pharmacopoeia 2020 edition definition
Experimental: The dynamic vapor sorption-desorption (DVS) curves of each sample were tested and plotted, respectively, and the experimental results are shown in table 5, wherein, the DVS profile of the crystal form A in Example 2 is shown in figure 7, the DVS profile of the crystal form B in Example 5 is shown in figure 8, and the DVS profile of the crude 20(S)-protopanaxadiol in Example 1 is shown in figure 9.
Regarding the description of hygroscopicity characteristics and the definition of hygroscopic weight gain (Guidelines for Hygroscopicity Test of Drugs, Chinese Pharmacopoeia 2020 Edition): • Deliquescent: Absorbing sufficient moisture to form a liquid • Highly hygroscopic: Hygroscopic weight gain of not less than 15% • Hygroscopic: Hygroscopic weight gain of less than 15% but not less than 2% • Slightly hygroscopic: Hygroscopic weight gain of less than 2% but not less than 0.2% • Non-hygroscopic or almost non-hygroscopic: Hygroscopic weight gain of less than 0.2%.

[7] = Initial (baseline of stability test)

Row | Compound | Average repose angle (°) [1] | Repose angle (°) [1] | crystal form after grinding [2] | crystal form after tableting [2] | Crystal form change ([3]; 25°C/60% RH/open/1 month) | Purity (area%) ([3]; 25°C/60% RH/open/1 month) | Crystal form change ([3]; 40°C/75% RH/open/1 month) | Purity (area%) ([3]; 40°C/75% RH/open/1 month) | Crystal form change ([3]; 80°C/sealed/1 day) | Purity (area%) ([3]; 80°C/sealed/1 day) | Purity (area%) [3, 7] | crystal form transformation (XRPD) [3] | Average bulk density [4] | Average tap density [4] | Bulk density [4] | Tap density [4] | Solubility, FaSSIF ([5]; 1 hour, 60 min) | Solubility, FaSSIF ([5]; 24 hours, 1440 min) | solubility in SGF, comparison among crystal forms [5] | Hygroscopic weight gain at 25°C/80% RH (%) [6] | further results
1 | CC(C)=CCC[C@](C)(O)[C@H]1CC[C@]2(C)[C@@H]1[C@H](O)C[C@@H]1[C@@]3(C)CC[C@H](O)C(C)(C)[C@@H]3CC[C@]12C [Crystal form D, 20(S)-protopanaxadiol] | 36.8 ° | 36.7 ° and 38.2 ° and 35.5 ° | transformed into amorphous form | did not undergo crystal form transformation | No | 93.75 area% | No | 93.00 area% | No | 94.04 area% | 96.01 area% | did not undergo crystal form transformation | 0.14 g/mL | 0.21 g/mL | 0.14 g/mL | 0.21 g/mL and 0.20 g/mL | 110 µg/mL (≈ 239 µM) | 100 µg/mL (≈ 217 µM) | no significant difference | 0.3863% | crystallinity degree after tableting [2]: decreased; solubility at 2 h (physchem; water): 0.13 µg/mL (≈ 0.282 µM); chemical purity (HPLC) after storage ([3]; open storage at 25°C/60% RH and 40°C/75% RH for 1 month): slightly decreased; purity (HPLC) after storage ([3]; sealed storage at 80°C for 1 day): slightly decreased; Solubility, FaSSIF ([5]; 2 hours, 120 min): 72 µg/mL (≈ 156 µM); Solubility, FaSSIF ([5]; 4 hours, 240 min): 82 µg/mL (≈ 178 µM); Solubility, SGF ([5]; 1 hour, 60 min): 21 µg/mL (≈ 45.6 µM); Solubility, SGF ([5]; 2 hours, 120 min): 17 µg/mL (≈ 36.9 µM); Solubility, SGF ([5]; 4 hours, 240 min): 16 µg/mL (≈ 34.7 µM); Solubility, SGF ([5]; 24 hours, 1440 min): 14 µg/mL (≈ 30.4 µM); solubility in FaSSIF, comparison with crystal form B [5]: higher than that of the crystal form B; 24-hour solubility relative to LOQ ([5]; 24 hours): lower than LOQ; Crystal form change after DVS test [6]: Unchanged; hygroscopicity [6]: slight hygroscopicity
2 | CC(C)=CCC[C@](C)(O)[C@H]1CC[C@]2(C)[C@@H]1[C@H](O)C[C@@H]1[C@@]3(C)CC[C@H](O)C(C)(C)[C@@H]3CC[C@]12C [Crystal form B, 20(S)-protopanaxadiol] | 24.2 ° | 25.0 ° and 24.7 ° and 22.8 ° | transformed into amorphous form | did not undergo crystal form transformation | No | 97.17 area% | No | 97.15 area% | No | 97.18 area% | 97.20 area% | did not undergo crystal form transformation | 0.21 g/mL | 0.25 g/mL | 0.22 g/mL and 0.21 g/mL | 0.25 g/mL and 0.24 g/mL and 0.26 g/mL | 34 µg/mL (≈ 73.8 µM) | 42 µg/mL (≈ 91.2 µM) | no significant difference | 0.2227% | crystallinity degree after tableting [2]: decreased; chemical purity (HPLC) after storage ([3]; under three conditions): did not show a significant decrease; Solubility, FaSSIF ([5]; 2 hours, 120 min): 39 µg/mL (≈ 84.6 µM); Solubility, FaSSIF ([5]; 4 hours, 240 min): 42 µg/mL (≈ 91.2 µM); Solubility, SGF ([5]; 1 hour, 60 min): 18 µg/mL (≈ 39.1 µM); Solubility, SGF ([5]; 2 hours, 120 min): 19 µg/mL (≈ 41.2 µM); Solubility, SGF ([5]; 4 hours, 240 min): 18 µg/mL (≈ 39.1 µM); Solubility, SGF ([5]; 24 hours, 1440 min): 16 µg/mL (≈ 34.7 µM); 24-hour solubility relative to LOQ ([5]; 24 hours): lower than LOQ; Crystal form change after DVS test [6]: Unchanged; hygroscopicity [6]: slight hygroscopicity
3 | CC(C)=CCC[C@](C)(O)[C@H]1CC[C@]2(C)[C@@H]1[C@H](O)C[C@@H]1[C@@]3(C)CC[C@H](O)C(C)(C)[C@@H]3CC[C@]12C [Crystal form A, 20(S)-protopanaxadiol] | 20.5 ° | 21.2 ° and 19.0 ° and 21.4 ° | transformed into amorphous form | did not undergo crystal form transformation | No | 97.20 area% | No | 97.18 area% | No | 97.20 area% | 97.21 area% | did not undergo crystal form transformation | 0.43 g/mL | 0.52 g/mL | 0.44 g/mL and 0.46 g/mL and 0.40 g/mL | 0.48 g/mL and 0.56 g/mL and 0.51 g/mL | 70 µg/mL (≈ 152 µM) | 120 µg/mL (≈ 260 µM) | no significant difference | 0.5763% | solubility at 2 h (physchem; fassif): 73 µg/mL (≈ 158 µM); solubility at 4 h (physchem; fassif): 72 µg/mL (≈ 156 µM); solubility at 4 h (physchem; ph 1 buffer, pH 1): 0.11 µg/mL (≈ 0.239 µM); solubility at 24 h (physchem; ph 1 buffer, pH 1): 0.15 µg/mL (≈ 0.326 µM); solubility at 1 h (physchem; sgf (simulated gastric fluid)): 20 µg/mL (≈ 43.4 µM); solubility at 2 h (physchem; sgf (simulated gastric fluid)): 21 µg/mL (≈ 45.6 µM); solubility at 4 h (physchem; sgf (simulated gastric fluid)): 17 µg/mL (≈ 36.9 µM); solubility at 24 h (physchem; sgf (simulated gastric fluid)): 11 µg/mL (≈ 23.9 µM); solubility at 24 h (physchem; water): 0.13 µg/mL (≈ 0.282 µM); solubility at 24 h (physchem; water and ph 1 buffer, pH 1): 0.13 to 0.15 µg/mL (≈ 0.282 to 0.326 µM); chemical purity (HPLC) after storage ([3]; under three conditions): did not show a significant decrease; solubility in FaSSIF, comparison with crystal form B [5]: higher than that of the crystal form B; Crystal form change after DVS test [6]: Unchanged; hygroscopicity [6]: slight hygroscopicity
